Values of other authors as cited in patent US20140018386A1, “LAQUINIMOD FORMULATIONS WITHOUT ALKALIZING AGENT” (Teva Pharmaceutical Industries, Ltd., priority 2012, published 2014).

What was measured:
[1] = in vivo
[2] = tested on: acute experimental autoimmune encephalomyelitis (aEAE) model; conditions: in vivo
[3] = tested on: relapsing MS
[4] = tested on: various experimental inflammatory/autoimmune animal models; conditions: EAE, DSS colitis, NOD mice, EAN, SLE, lupus nephritis, lupus arthritis, Crohn's Disease, Rheumatoid arthritis

CCN(C(=O)c1c(O)c2c(Cl)cccc2n(C)c1=O)c1ccccc1 [Laquinimod sodium]
Oral bioavailability [1]: high oral bioavailability

CCN(C(=O)c1c(O)c2c(Cl)cccc2n(C)c1=O)c1ccccc1 [Laquinimod, N-ethyl-N-phenyl-1,2-dihydro-4-hydroxy-5-chloro-1-methyl-2-oxoquinoline-3-carboxamide]
Effect in the aEAE model [2]: effective | Development of active MRI lesions [3]: can reduce development of active MRI lesions | Therapeutic effect [4]: demonstrated therapeutic effect
